From US11366102B2, “Spectographic metabolite-signature for identifying a subject's susceptibility to drugs” (Olaris, Inc., priority 2018, dated 2022)

Assays:
ER+/HER2− metastatic BC = assay: Retrospective study of metastatic BC patients treated with CDK4/6 inhibitors, classified R or NR by change in sum of diameters of target tumors after 6 months, with overall survival; assay type: in vivo, human; conditions: for Patients within the NR group / Number of non-responders (NR): at least a 20% increase in the sum of diameters of target tumors after 6 months; for Patients within the NR group: 10 NR of 24 patients; for Number of non-responders (NR) / Number of responders (R): samples separated by inhibitor; for Number of responders (R): at least a 30% decrease in the sum of diameters of target tumors after 6 months of treatment
From the text: Here we describe a retrospective study analyzing plasma-based metabolites from a baseline (BL) sample and after 2-months (2M) of treatment of 24 women with ER+/HER2-− metastatic BC treated with CDK4/6 inhibitors, palbociclib or ribociclib.

CYP2A6 = target: T1, CYP2A6 (Homo sapiens, UniProt P11509); conditions: off-target effect; cited from earlier work
T1 sequence (P11509 1-494): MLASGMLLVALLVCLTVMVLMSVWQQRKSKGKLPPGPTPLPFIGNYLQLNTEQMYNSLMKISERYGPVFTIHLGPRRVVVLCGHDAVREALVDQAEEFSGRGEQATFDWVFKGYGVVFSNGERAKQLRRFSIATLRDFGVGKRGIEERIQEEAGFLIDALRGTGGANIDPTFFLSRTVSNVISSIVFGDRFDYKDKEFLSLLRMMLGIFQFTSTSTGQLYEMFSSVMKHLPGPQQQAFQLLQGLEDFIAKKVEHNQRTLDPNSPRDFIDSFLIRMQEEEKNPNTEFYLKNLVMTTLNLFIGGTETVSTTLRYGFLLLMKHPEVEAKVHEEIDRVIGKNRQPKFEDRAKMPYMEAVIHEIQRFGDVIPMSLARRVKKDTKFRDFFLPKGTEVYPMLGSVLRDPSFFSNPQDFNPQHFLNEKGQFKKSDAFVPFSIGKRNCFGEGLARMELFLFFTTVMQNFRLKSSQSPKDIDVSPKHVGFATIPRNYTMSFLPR

CYP2C19 = CYP2C19 (Homo sapiens, UniProt P33261); conditions: off-target effect; cited from earlier work
[1] = system: adenoid cystic carcinomas of the salivary gland; conditions: despite increased expression of c-kit; cited from earlier work

Chain of CYP2C19 (P33261 whole entry): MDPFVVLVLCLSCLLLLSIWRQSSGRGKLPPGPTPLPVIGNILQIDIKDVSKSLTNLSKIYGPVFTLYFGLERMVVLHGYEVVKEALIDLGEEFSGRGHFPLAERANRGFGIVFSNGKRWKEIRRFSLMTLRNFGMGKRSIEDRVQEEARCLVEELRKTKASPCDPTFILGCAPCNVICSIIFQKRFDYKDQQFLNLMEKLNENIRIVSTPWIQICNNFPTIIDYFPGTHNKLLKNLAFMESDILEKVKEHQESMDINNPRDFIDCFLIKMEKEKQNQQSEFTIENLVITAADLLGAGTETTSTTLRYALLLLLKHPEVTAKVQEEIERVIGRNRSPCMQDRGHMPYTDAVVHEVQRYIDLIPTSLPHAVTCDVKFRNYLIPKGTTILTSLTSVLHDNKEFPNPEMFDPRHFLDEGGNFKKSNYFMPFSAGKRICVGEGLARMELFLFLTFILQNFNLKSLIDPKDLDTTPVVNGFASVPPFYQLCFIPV

## CN(C)C(=O)c1cc2cnc(Nc3ccc(N4CCNCC4)cn3)nc2n1C1CCCC1 [ribociclib]
ER+/HER2− metastatic BC
  Patients within the NR group: 7 patients
  Number of non-responders (NR): 6
  Number of responders (R): 8

## CC(=O)c1c(C)c2cnc(Nc3ccc(N4CCNCC4)cn3)nc2n(C2CCCC2)c1=O [palbociclib]
ER+/HER2− metastatic BC
  Patients within the NR group: 3 patients
  Number of non-responders (NR): 3
  Number of responders (R): 7

## N#Cc1ccc(C(c2ccc(C#N)cc2)n2cncn2)cc1 [letrozole]
CYP2A6
  Inhibition of CYP2A6: inhibits
CYP2C19
  Inhibition of CYP2C19: inhibits

## Cc1ccc(NC(=O)c2ccc(CN3CCN(C)CC3)cc2)cc1Nc1nccc(-c2cccnc2)n1 [imatinib]
[1]
  Effect on adenoid cystic carcinomas of the salivary gland: no effect
